{"source": "patent EP2696861B1", "about": "“COMBINATION OF EPA, DPA AND/OR DHA WITH A CHEMOTHERAPEUTIC AGENT” (priority 2011, dated 2012)", "system": "C26 cells", "assay": "Metabolic activity of C26 cells after fatty acid pre-incubation and chemotherapy incubation", "type": "cell-based, Murine", "settings": "4 days pre-incubation with 50 µM fatty acid, medium removed, compared to control, p< 0.0001 for EPA or DPA", "experimental": "C = mice receiving control diet B, TB = tumor-bearing mice receiving control diet, TB-SNC = tumor-bearing mice receiving the specific nutritional combination.\nPrior to chemotherapy incubations, C26 cells were pre-incubated for 4 days with EPA, DHA or DPA in a final concentration of 50 µM. To avoid direct interaction between fatty acids and chemotherapeutics, the medium containing fatty acids was removed before the addition of chemotherapy. The cells were incubated for 24 hr with the chemotherapeutics cisplatin and doxorubicin, after incubation the metabolic activity was measured.", "data": [{"smiles": "CC/C=C\\C/C=C\\C/C=C\\C/C=C\\C/C=C\\C/C=C\\CCC(=O)O", "note": "[DHA, docosahexanoic acid]", "values": [{"measurement": "metabolic activity after cisplatin treatment", "setting": "then 24 hr cisplatin", "value": "no significant changes in metabolic activity"}, {"measurement": "metabolic activity of doxorubicin treated cells", "setting": "then 24 hr doxorubicin", "value": "no significant changes in metabolic activity"}]}]}
